The numbers were not newly measured in patent publication US12622947B2, “Pharmaceutical composition for treating levodopa-induced dyskinesia or for suppressing progression thereof” (PEPTRON, INC., priority 2019, dated 2026), which cites them from elsewhere.

For series [1] the following is noted: in vivo.
The conditions of series [2]: compared to GLP-1-Tf (Martin et al., 2012).
The next series has as its system MPTP mouse model. Conditions: given daily for 7 days after treatment (Liu et al., 2015).

With Exendin-4, the “crossing the BBB / entry into the brain from blood” value in series [1] is recorded as “enter the brain from blood although its entry speed is limited”. For the same substance, the rotarod performance entry in series [2] is recorded as “improve rotarod performance”. The neuro-protection result in the series on MPTP mouse model is on record as “not effective”.
